# Reference: ChEMBL document CHEMBL3046904, “Synthesis, characterization, bioactivity, and POM analyses of isothiochromeno[3,4-e][1,2]oxazines” (2013)
# What was measured:
# Format in all cases: functional
# SF-268 [1] = assay: Cytotoxicity against Homo sapiens (human) SF268 assessed as cell growth at 10^-4 M after 48 hr by Alamar Blue assay; conditions: SF-268, 48 h, read-out: Activity
# MCF7 [2] = assay: Cytotoxicity against Homo sapiens (human) MCF7 assessed as cell growth at 10^-4 M after 48 hr by Alamar Blue assay; conditions: MCF7, 48 h, read-out: Activity
# NCI-H460 [3] = assay: Cytotoxicity against Homo sapiens (human) NCI-H460 assessed as cell growth at 10^-4 M after 48 hr by Alamar Blue assay; conditions: NCI-H460, 48 h, read-out: Activity
# SW-620 = assay: Cytotoxicity against Homo sapiens (human) SW620 after 48 hr by Alamar Blue assay; conditions: SW-620, 48 h
# HT-29 = assay: Cytotoxicity against Homo sapiens (human) HT-29 after 48 hr by Alamar Blue assay; conditions: HT-29, 48 h
# KM12 = assay: Cytotoxicity against Homo sapiens (human) KM12 after 48 hr by Alamar Blue assay; conditions: KM12, 48 h
# HCT-15 = assay: Cytotoxicity against Homo sapiens (human) HCT15 after 48 hr by Alamar Blue assay; conditions: HCT-15, 48 h
# HCC 2998 = assay: Cytotoxicity against Homo sapiens (human) HCC2998 after 48 hr by Alamar Blue assay; conditions: HCC 2998, 48 h
# HCT-116 = assay: Cytotoxicity against Homo sapiens (human) HCT116 after 48 hr by Alamar Blue assay; conditions: HCT-116, 48 h
# COLO 205 = assay: Cytotoxicity against Homo sapiens (human) COLO205 after 48 hr by Alamar Blue assay; conditions: COLO 205, 48 h
# BT-549 = assay: Cytotoxicity against Homo sapiens (human) BT549 after 48 hr by Alamar Blue assay; conditions: BT-549, 48 h
# T47D = assay: Cytotoxicity against Homo sapiens (human) T47D after 48 hr by Alamar Blue assay
# MDA-MB-435 = assay: Cytotoxicity against Homo sapiens (human) MDA-MB-435 after 48 hr by Alamar Blue assay; conditions: MDA-MB-435, 48 h
# MDA-MB-231 = assay: Cytotoxicity against Homo sapiens (human) MDA-MB-231 after 48 hr by Alamar Blue assay; conditions: MDA-MB-231, 48 h
# Hs-578T = assay: Cytotoxicity against Homo sapiens (human) Hs 578T after 48 hr by Alamar Blue assay
# NCI/ADR-RES = assay: Cytotoxicity against Homo sapiens (human) NCI/ADR-RES after 48 hr by Alamar Blue assay
# MCF7 [4] = assay: Cytotoxicity against Homo sapiens (human) MCF7 after 48 hr by Alamar Blue assay; conditions: MCF7, 48 h
# PC-3 = assay: Cytotoxicity against Homo sapiens (human) PC3 after 48 hr by Alamar Blue assay; conditions: PC-3, 48 h
# DU-145 = assay: Cytotoxicity against Homo sapiens (human) DU145 after 48 hr by Alamar Blue assay; conditions: DU-145, 48 h
# UO-31 = assay: Cytotoxicity against Homo sapiens (human) UO31 after 48 hr by Alamar Blue assay; conditions: UO-31, 48 h
# SN12C = assay: Cytotoxicity against Homo sapiens (human) SN12C after 48 hr by Alamar Blue assay
# TK-10 = assay: Cytotoxicity against Homo sapiens (human) TK10 after 48 hr by Alamar Blue assay; conditions: TK-10, 48 h
# RXF 393 = assay: Cytotoxicity against Homo sapiens (human) RXF393 after 48 hr by Alamar Blue assay; conditions: RXF 393, 48 h
# CAKI-1 = assay: Cytotoxicity against Homo sapiens (human) Caki1 after 48 hr by Alamar Blue assay; conditions: CAKI-1, 48 h
# ACHN = assay: Cytotoxicity against Homo sapiens (human) ACHN after 48 hr by Alamar Blue assay
# A498 = assay: Cytotoxicity against Homo sapiens (human) A498 after 48 hr by Alamar Blue assay; conditions: A498, 48 h
# A549 = assay: Cytotoxicity against Homo sapiens (human) A549 after 48 hr by Alamar Blue assay; conditions: A549, 48 h
# RPMI-8226 = assay: Cytotoxicity against Homo sapiens (human) RPMI8226 after 48 hr by Alamar Blue assay; conditions: RPMI-8226, 48 h
# SR = assay: Cytotoxicity against Homo sapiens (human) SR after 48 hr by Alamar Blue assay
# MOLT-4 = assay: Cytotoxicity against Homo sapiens (human) MOLT4 after 48 hr by Alamar Blue assay; conditions: MOLT-4, 48 h
# K562 = assay: Cytotoxicity against Homo sapiens (human) K562 after 48 hr by Alamar Blue assay; conditions: K562, 48 h
# [5] = Cytotoxicity against Homo sapiens (human) HL-60(TB) after 48 hr by Alamar Blue assay; conditions: HL-60, 48 h
# HOP-92 = assay: Cytotoxicity against Homo sapiens (human) HOP92 after 48 hr by Alamar Blue assay; conditions: HOP-92, 48 h
# NCI-H226 = assay: Cytotoxicity against Homo sapiens (human) NCI-H226 after 48 hr by Alamar Blue assay; conditions: NCI-H226, 48 h
# EKVX = assay: Cytotoxicity against Homo sapiens (human) EKVX after 48 hr by Alamar Blue assay
# HOP-62 = assay: Cytotoxicity against Homo sapiens (human) HOP62 after 48 hr by Alamar Blue assay; conditions: HOP-62, 48 h
# 786-0 = assay: Cytotoxicity against Homo sapiens (human) 786-0 after 48 hr by Alamar Blue assay; conditions: 786-0, 48 h
# OVCAR-8 = assay: Cytotoxicity against Homo sapiens (human) OVCAR8 after 48 hr by Alamar Blue assay; conditions: OVCAR-8, 48 h
# OVCAR-4 = assay: Cytotoxicity against Homo sapiens (human) OVCAR4 after 48 hr by Alamar Blue assay; conditions: OVCAR-4, 48 h
# OVCAR-5 = assay: Cytotoxicity against Homo sapiens (human) OVCAR5 after 48 hr by Alamar Blue assay; conditions: OVCAR-5, 48 h
# OVCAR-3 = assay: Cytotoxicity against Homo sapiens (human) OVCAR3 after 48 hr by Alamar Blue assay; conditions: OVCAR-3, 48 h
# IGROV-1 = assay: Cytotoxicity against Homo sapiens (human) IGROV1 after 48 hr by Alamar Blue assay; conditions: IGROV-1, 48 h
# UACC-62 = assay: Cytotoxicity against Homo sapiens (human) UACC62 after 48 hr by Alamar Blue assay; conditions: UACC-62, 48 h
# UACC-257 = assay: Cytotoxicity against Homo sapiens (human) UACC257 after 48 hr by Alamar Blue assay; conditions: UACC-257, 48 h
# SK-MEL-5 = assay: Cytotoxicity against Homo sapiens (human) SK-MEL-5 after 48 hr by Alamar Blue assay; conditions: SK-MEL-5, 48 h
# SK-MEL-28 = assay: Cytotoxicity against Homo sapiens (human) SK-MEL-28 after 48 hr by Alamar Blue assay; conditions: SK-MEL-28, 48 h
# SK-MEL-2 = assay: Cytotoxicity against Homo sapiens (human) SK-MEL-2 after 48 hr by Alamar Blue assay; conditions: SK-MEL-2, 48 h
# Malme-3M = assay: Cytotoxicity against Homo sapiens (human) MALME-3M after 48 hr by Alamar Blue assay
# M14 = assay: Cytotoxicity against Homo sapiens (human) M14 after 48 hr by Alamar Blue assay; conditions: M14, 48 h
# LOX IMVI = assay: Cytotoxicity against Homo sapiens (human) LOXIMVI after 48 hr by Alamar Blue assay
# U-251 = assay: Cytotoxicity against Homo sapiens (human) U251 after 48 hr by Alamar Blue assay; conditions: U-251, 48 h
# SNB-19 = assay: Cytotoxicity against Homo sapiens (human) SNB19 after 48 hr by Alamar Blue assay; conditions: SNB-19, 48 h
# SF-295 = assay: Cytotoxicity against Homo sapiens (human) SF295 after 48 hr by Alamar Blue assay; conditions: SF-295, 48 h
# SF-539 = assay: Cytotoxicity against Homo sapiens (human) SF539 after 48 hr by Alamar Blue assay; conditions: SF-539, 48 h
# SF-268 [6] = assay: Cytotoxicity against Homo sapiens (human) SF268 after 48 hr by Alamar Blue assay; conditions: SF-268, 48 h
# NCI-H522 = assay: Cytotoxicity against Homo sapiens (human) NCI-H522 after 48 hr by Alamar Blue assay; conditions: NCI-H522, 48 h
# NCI-H460 [7] = assay: Cytotoxicity against Homo sapiens (human) NCI-H460 after 48 hr by Alamar Blue assay; conditions: NCI-H460, 48 h
# NCI-H322M = assay: Cytotoxicity against Homo sapiens (human) NCI-H322M after 48 hr by Alamar Blue assay
# NCI-H23 = assay: Cytotoxicity against Homo sapiens (human) NCI-H23 after 48 hr by Alamar Blue assay; conditions: NCI-H23, 48 h
smiles,measurement,setting,value
Cc1ccc(C2=NOC3=c4ccccc4=CSC3=C2c2ccccc2)cc1,growth at 100 µM,SF-268 [1],66%
same,growth at 100 µM,MCF7 [2],51%
same,growth at 100 µM,NCI-H460 [3],92%
Cc1ccc(C2=NOC3=c4ccccc4=CSC3=C2c2ccc(C)cc2)cc1,GI50,SW-620,> 100 µM
same,GI50,HT-29,> 100 µM
same,GI50,KM12,> 100 µM
same,GI50,HCT-15,> 100 µM
same,GI50,HCC 2998,> 100 µM
same,GI50,HCT-116,57.5 µM
same,GI50,COLO 205,> 100 µM
same,GI50,BT-549,> 100 µM
same,GI50,T47D,25.4 µM
same,GI50,MDA-MB-435,> 100 µM
same,GI50,MDA-MB-231,> 100 µM
same,GI50,Hs-578T,> 100 µM
same,GI50,NCI/ADR-RES,> 100 µM
same,GI50,MCF7 [4],> 100 µM
same,GI50,PC-3,> 100 µM
same,GI50,DU-145,> 100 µM
same,GI50,UO-31,> 100 µM
same,GI50,SN12C,20 µM
same,GI50,TK-10,> 100 µM
same,GI50,RXF 393,> 100 µM
same,GI50,CAKI-1,> 100 µM
same,GI50,ACHN,> 100 µM
same,GI50,A498,> 100 µM
same,GI50,A549,> 100 µM
same,GI50,RPMI-8226,69.2 µM
same,GI50,SR,42 µM
same,GI50,MOLT-4,37.1 µM
same,GI50,K562,22.9 µM
same,GI50,[5],> 0.0001 µM
same,growth at 100 µM,SF-268 [1],91%
same,growth at 100 µM,MCF7 [2],36%
same,growth at 100 µM,NCI-H460 [3],93%
same,GI50,HOP-92,68.1 µM
same,GI50,NCI-H226,> 100 µM
same,GI50,EKVX,> 100 µM
same,GI50,HOP-62,> 100 µM
same,GI50,786-0,> 100 µM
same,GI50,OVCAR-8,40 µM
same,GI50,OVCAR-4,> 100 µM
same,GI50,OVCAR-5,> 100 µM
same,GI50,OVCAR-3,94.8 µM
same,GI50,IGROV-1,> 100 µM
same,GI50,UACC-62,> 100 µM
same,GI50,UACC-257,> 100 µM
same,GI50,SK-MEL-5,> 100 µM
same,GI50,SK-MEL-28,> 100 µM
same,GI50,SK-MEL-2,> 100 µM
same,GI50,Malme-3M,> 100 µM
same,GI50,M14,> 100 µM
same,GI50,LOX IMVI,> 100 µM
same,GI50,U-251,> 100 µM
same,GI50,SNB-19,> 100 µM
same,GI50,SF-295,> 100 µM
same,GI50,SF-539,> 100 µM
same,GI50,SF-268 [6],> 100 µM
same,GI50,NCI-H522,53.8 µM
same,GI50,NCI-H460 [7],> 100 µM
same,GI50,NCI-H322M,> 100 µM
same,GI50,NCI-H23,> 100 µM
